Results taken from PubChem BioAssay (NCI).
“And” between values parts separate entries of the source, which are not always exact repeats. Equal values may be shown once.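 Results reflect a 48-hour exposure of cells in 96-well plates to compound at five concentrations. GI50 = concentration required for 50% inhibition of growth. TGI denotes the concentration required for complete inhibition of growth.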

How the values were obtained:
Test in all cases: NCI tumour cell line growth inhibition, 48 h
K-562 leukemia = system: K-562 leukemia
KM12 colon = system: KM12 colon
CCRF-CEM leukemia = system: CCRF-CEM leukemia
MOLT-4 leukemia = system: MOLT-4 leukemia
M14 melanoma = system: M14 melanoma
HCT-116 colon = system: HCT-116 colon
OVCAR-5 ovarian = system: OVCAR-5 ovarian
A549 NSCLC = system: A549 NSCLC
BT-549 breast = system: BT-549 breast
SK-OV-3 ovarian = system: SK-OV-3 ovarian

| Structure (SMILES) | GI50 (K-562 leukemia) | TGI (K-562 leukemia) | GI50 (KM12 colon) | TGI (KM12 colon) | GI50 (CCRF-CEM leukemia) | TGI (CCRF-CEM leukemia) | GI50 (MOLT-4 leukemia) | TGI (MOLT-4 leukemia) | GI50 (M14 melanoma) | TGI (M14 melanoma) | GI50 (HCT-116 colon) | TGI (HCT-116 colon) | GI50 (OVCAR-5 ovarian) | TGI (OVCAR-5 ovarian) | GI50 (A549 NSCLC) | TGI (A549 NSCLC) | GI50 (BT-549 breast) | TGI (BT-549 breast) | GI50 (SK-OV-3 ovarian) | TGI (SK-OV-3 ovarian) |
| --- | --- | --- | --- | --- | --- | --- | --- | --- | --- | --- | --- | --- | --- | --- | --- | --- | --- | --- | --- | --- |
| CCn1cc(C(=O)O)c(=O)c2cc(F)c(N3CCN(S(=O)(=O)c4cccc5ccccc45)CC3)cc21 | 3.93 µM | > 100 µM | 2.96 µM | 9.2 µM | 3.67 µM | > 100 µM | 4.46 µM | > 100 µM | 4.37 µM | > 100 µM | 3.88 µM | > 100 µM | 3.38 µM | > 100 µM | 2.87 µM | > 100 µM | 3.69 µM | > 100 µM | 3.11 µM | 13.4 µM |
| CCN(C)c1nc(N(C)CC)c2nc(N(C)CC)nc(N(C)CC)c2n1 | – | > 100 µM | – | > 100 µM | – | > 100 µM | – | > 100 µM | – | > 100 µM | – | > 100 µM | – | > 100 µM | – | > 100 µM | – | > 100 µM | – | > 100 µM |
| OC1(c2ccc(Cl)c(C(F)(F)F)c2)CCN(CCCC(c2ccc(F)cc2)c2ccc(F)cc2)CC1 | 0.781 µM | 1.75 µM | 0.864 µM | 1.62 µM | 1.04 µM | 2.63 µM | 1.03 µM | 2.38 µM | 0.828 µM | 1.52 µM | 0.734 µM | 1.41 µM | 0.868 µM | 1.77 µM | 0.837 µM | 1.58 µM | 1.09 µM | 2.1 µM | 1.31 µM | 3.17 µM |
| COc1ccc2c(c1)c(-c1nc(-c3c[nH]c4ncccc34)cs1)cn2CCCN1CCOCC1 | 2.08 µM | 4.95 µM | 2.41 µM | 6.88 µM | 2.76 µM | 8.09 µM | 1.85 µM | 4.4 µM | 1.77 µM | 3.58 µM | 1.85 µM | 4.04 µM | 2.6 µM | 7.91 µM | 4.04 µM | 13.1 µM | 2 µM | 5.87 µM | 2.83 µM | 8.28 µM |
| COC1N(C2CC(O)C(CO)O2)C(=O)NC(=O)C1(F)Br (stereo not drawn) | – | 50 µM and > 100 µM | 30.4 µM | 50 µM and > 100 µM | 27.6 µM | 50 µM and > 75.4 µM | 13.3 µM | 15.8 µM and > 100 µM | 38.4 µM | 50 µM and > 100 µM | 12.6 µM | 50 µM and > 100 µM | > 50 µM | > 100 µM | 3.22 µM | 50 µM and > 100 µM | – | > 100 µM | 99.4 µM | > 100 µM |
